Consider 1 molecule from publication PMC7675540 (ACS Omega, 2020).

The experiment has as its target T1, carboxylesterase 1 (CES1) (Homo sapiens, UniProt P23141).
T1 sequence (P23141 18-567): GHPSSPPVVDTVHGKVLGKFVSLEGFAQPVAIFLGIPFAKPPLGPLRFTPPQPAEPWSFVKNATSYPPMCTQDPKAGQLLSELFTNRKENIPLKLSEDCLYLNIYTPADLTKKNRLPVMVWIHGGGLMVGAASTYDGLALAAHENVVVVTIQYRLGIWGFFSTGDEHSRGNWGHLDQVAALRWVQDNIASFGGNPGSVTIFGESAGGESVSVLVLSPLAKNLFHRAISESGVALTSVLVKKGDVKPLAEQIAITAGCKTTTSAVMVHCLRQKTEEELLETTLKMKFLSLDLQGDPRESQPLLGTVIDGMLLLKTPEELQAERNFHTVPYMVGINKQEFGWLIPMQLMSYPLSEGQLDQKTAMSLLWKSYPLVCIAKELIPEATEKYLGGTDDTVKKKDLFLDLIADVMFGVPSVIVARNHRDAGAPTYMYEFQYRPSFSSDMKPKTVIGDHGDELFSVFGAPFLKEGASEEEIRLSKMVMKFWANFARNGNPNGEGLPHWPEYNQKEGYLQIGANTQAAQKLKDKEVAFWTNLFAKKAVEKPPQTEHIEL
Kind of experiment: LC-MS/MS of the product of PGD2-G hydrolysis. Type of experiment: biochemical.

Take `CCCCC[C@H](O)/C=C/[C@H]1C(=O)C[C@H](O)[C@@H]1C/C=C\CCCC(=O)O` [PGD2]: the “LC-MS/MS of the product of PGD2-G hydrolysis” value is listed as “Our data indicates that PGD2-G/PGD2 is a substrate/product dyad for CES1”.
